{"source": "patent US5399729A", "about": "“Esterified alkoxylated polyol fat substitutes having high primary ester content” (Arco Chemical Technology, L.P., priority 1993, dated 1995)", "system": "porcine pancreatic lipase", "assay": "Porcine pancreatic lipase-catalyzed hydrolysis (lipase titrimetric assay, automatic pH stat method)", "type": "in vitro ADME", "settings": "pH 8.5", "experimental": "To measure the relative rate of enzyme-catalyzed hydrolysis for the esterified propoxylated glycerin, the composition was challenged by porcine pancreatic lipase. Test emulsions were prepared using the composition according to the procedures described by Naher, \"Lipase Titrimetric Assay\", in Methods in Enzymatic Analysis, Vol. 2, 2nd Eng. ed., p. 814 (1974), except that the composition was not neutralized prior to generation of the emulsion. A 20 mL sample of the composition was utilized. The emulsions were generated in a Waring blender equipped with a stainless steel jacketed container (300 mL capacity). The jacketed blender container was filled with an ice-in-water suspension to cool the emulsion during preparation. Hydrolysis of the composition at pH 8.50 and two enzyme levels (200 and 4000 units/assay) was monitored via the automatic pH stat method described by Naber using a Radiometic Copenhagen RTS822 recording titration system (equipped with a PHM84 pH meter and a REA 270 derivatization unit) and a 0.1N sodium hydroxide solution. The enzymatic reaction was maintained at 37° C. under a nitrogen atmosphere.\nThe results obtained for the esterified alkoxylated polyol obtained as described hereinabove and for olive oil and soybean oil controls are shown in Table I. The table also provides comparative data for a conventional esterified alkoxylated polyol made by reacting 8 equivalents of propylene oxide with one equivalent of glycerin under basic conditions and esterifying with soybean fatty acids; this conventional fat substitute has a low (<5%) proportion of primary ester linkages. […] This finding was surprising in view of U.S. Pat. Nos. 5,059,443 and 5,077,073, which indicate that the rate of lipase-catalyzed hydrolysis is substantially independent of the structure of the ester linkages in an esterified alkoxylated polyol fat substitute."}
{"substance": "Soybean Oil", "values": [{"measurement": "Hydrolysis Rate (#μeq/min for an equivalent amount of enzyme)", "result": 3.62, "unit": "μeq/min"}, {"measurement": "Hydrolyzability (relative to olive oil)", "result": 0.738}, {"measurement": "Normalized Hydrolyzability (hydrolyzability compared on an equal molar basis, taking into account the concentration of ester linkages)", "result": 0.723}]}
